Patent US9902725B2, “Heterocyclic derivatives as RORgamma modulators” (GENFIT, priority 2014, dated 2018)

Key:
[1] = molecular target: T1, RORγt ligand-binding domain (RORγt-LBD) (Homo sapiens, UniProt P51449); assay: Time-resolved FRET (TR-FRET) RORγt coactivator assay; type: biochemical; conditions: GST-RORγ-LBD, biotinylated RIP140 peptide, coactivator displacement
T1 construct: 20 nM recombinantly expressed RORγ-LBD fused to GST
T1 sequence (P51449 269-508 limits assumed): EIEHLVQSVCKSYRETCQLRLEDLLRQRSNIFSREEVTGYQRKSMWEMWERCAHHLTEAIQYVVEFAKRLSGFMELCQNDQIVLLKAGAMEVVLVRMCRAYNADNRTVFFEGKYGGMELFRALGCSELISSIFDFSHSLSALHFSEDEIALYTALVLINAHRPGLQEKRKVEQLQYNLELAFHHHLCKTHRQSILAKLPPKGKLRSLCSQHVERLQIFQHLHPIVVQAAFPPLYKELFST

[2] = Microsomal stability, mouse microsomes (CEREP); type: in vitro ADME; conditions: 0.1 μM, 0.1 mg/mL microsomal protein
Protocol: (§1) All the assays were conducted at CEREP (CEREP, France and USA). Metabolic compound stability was tested in human (CEREP, Ref 607) and mouse (CEREP, Ref: 806) microsomes. Inhibition of human drug-metabolizing cytochromes P450 was tested on the five most commonly responsible enzymes of metabolism of xenobiotics, CYP1A2 (CEREP, Ref 389), CYP2C9 (CEREP, Ref 412), CYP2C19 (CEREP, Ref 390), CYP2D6 (CEREP, Ref 1338) and CYP3A4 (CEREP, Ref 391).
Briefly, the standard conditions for CEREP's stability assays include incubation of test compound at 0.1 μM with human or mouse microsomes for 60 minutes in duplicate. The protein concentration of microsomes is 0.1 mg/mL. The parent compound is detected by HPLC-MS/MS analysis. The quantity of the parent compound that remains intact upon 60 minutes of microsome exposure (% remaining) is calculated by comparing the peak area of the parent compound at 60 minutes of exposure to the time zero.

CYP1A2 = molecular target: T2, CYP1A2 (Homo sapiens, UniProt P05177); assay: CYP inhibition CYP1A2 (CEREP); type: in vitro ADME; conditions: human, recombinant CYP1A2, probe 3-cyano-7-ethoxycoumarin, single concentration (typically 10 μM), read-out: CYP 1A2 (% inhibition of Control)
T2 sequence (P05177 1-516): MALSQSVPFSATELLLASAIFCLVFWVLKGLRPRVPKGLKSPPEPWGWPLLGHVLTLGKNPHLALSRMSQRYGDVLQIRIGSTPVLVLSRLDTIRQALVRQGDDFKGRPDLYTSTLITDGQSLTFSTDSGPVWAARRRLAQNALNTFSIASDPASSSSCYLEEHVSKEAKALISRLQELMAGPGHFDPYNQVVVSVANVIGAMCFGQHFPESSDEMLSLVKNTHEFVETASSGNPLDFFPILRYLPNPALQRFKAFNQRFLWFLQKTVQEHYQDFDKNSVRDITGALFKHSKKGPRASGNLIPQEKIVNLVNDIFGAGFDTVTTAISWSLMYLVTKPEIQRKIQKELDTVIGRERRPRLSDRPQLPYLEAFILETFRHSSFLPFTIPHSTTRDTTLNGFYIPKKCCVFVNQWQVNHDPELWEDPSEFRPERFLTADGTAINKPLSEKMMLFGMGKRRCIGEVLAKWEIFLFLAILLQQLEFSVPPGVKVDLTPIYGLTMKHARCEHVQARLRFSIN
Protocol: as §1
Briefly, CEREP's CYP inhibition assay uses traditional probe substrates, which are specific to individual CYP isoforms. 3-cyano-7-ethoxycoumarin is mainly catalyzed by CYP1A2 and CYP2C19, 3-[2-(N,N-diethyl-N-methylammonium)ethyl]-7-methoxy-4-methylcoumarin for CYP2C9 and CYP2D6 and finally, 7-benzyloxy-4-trifluoromethylcoumarin is pathway catalyzed predominantly by CYP3A4. The inhibition assays were performed with human recombinant CYP isoforms preparations. HPLC MS/MS methods are used to detect metabolites in these assays. Compounds were tested at single concentrations (typically 10 μM) and data were expressed as percent of control inhibition.

| Compound | IC50 [1] | Mouse microsomes (% Cpd. remaining at 60 min) [2] | inhibition at 10 µM (CYP1A2) |
| --- | --- | --- | --- |
| CC(C)CC(NC(=O)Cc1ccc2[nH]cc(CCC(=O)O)c2c1)c1ccccc1N1CCCCC1 (stereo not drawn) [Cpd. 29, 3-{5-[({3-methyl-1-[2-(piperidin-1-yl)phenyl]butyl}carbamoyl)methyl]-1H-indol-3-yl}propanoic acid] | < 1000 nM | 20% | -8.2% |
| O=C(O)CCc1c[nH]c2ccc(CC(=O)NC(c3ccccc3)c3ccc(C(F)(F)F)cc3N3CCCC3)cc12 (stereo not drawn) [Cpd. 48, 3-{5-[({phenyl[2-(pyrrolidin-1-yl)-4-(trifluoromethyl)phenyl]methyl}carbamoyl)methyl]-1H-indol-3-yl}propanoic acid] | < 1000 nM | 53% | 10.7% |
| O=C(O)CCc1c[nH]c2ccc(CC(=O)NC(c3ccccc3)c3ccc(Br)cc3N3CCCC3)cc12 (stereo not drawn) [Cpd. 50, 3-{5-[({[4-bromo-2-(pyrrolidin-1-yl)phenyl](phenyl)methyl}carbamoyl)methyl]-1H-indol-3-yl}propanoic acid] | < 1000 nM | 38% | 0.9% |
| Cc1ccc(C(NC(=O)Cc2ccc3[nH]cc(CCC(=O)O)c3c2)c2ccccc2)c(N2CCCCC2)c1 (stereo not drawn) [Cpd. 77, 3-{5-[({[4-methyl-2-(piperidin-1-yl)phenyl](phenyl)methyl}carbamoyl)methyl]-1H-indol-3-yl}propanoic acid] | < 1000 nM | 31% | -0.9% |
| COc1ccc(C(NC(=O)Cc2ccc3[nH]cc(CCC(=O)O)c3c2)c2ccccc2)c(N2CCCCC2)c1 (stereo not drawn) [Cpd. 111, 3-{5-[({[4-methoxy-2-(piperidin-1-yl)phenyl](phenyl)methyl}carbamoyl)methyl]-1H-indol-3-yl}propanoic acid] | < 1000 nM | 37% | -12.4% |
| Cc1ccc(C(NC(=O)Cc2ccc3[nH]cc(CCC(=O)O)c3c2)c2ccccc2)c(N(C)C)c1 (stereo not drawn) [Cpd. 192, 3-{5-[({[2-(dimethylamino)-4-methylphenyl](phenyl)methyl}carbamoyl)methyl]-1H-indol-3-yl}propanoic acid] | < 1000 nM | 66% | -1.9% |
| O=C(O)CCCc1c[nH]c2ccc(CC(=O)NC(c3ccccc3)c3ccccc3N3CCCCC3)cc12 (stereo not drawn) [Cpd. 212, 4-{5-[({phenyl[2-(piperidin-1-yl)phenyl]methyl}carbamoyl)methyl]-1H-indol-3-yl}butanoic acid] | < 1000 nM | 11% | -5.4% |

More lines, now with the values ahead:

| IC50 [1] | Mouse microsomes (% Cpd. remaining at 60 min) [2] | inhibition at 10 µM (CYP1A2) | Compound |
| --- | --- | --- | --- |
| < 1000 nM | 35% | 1% | O=C(O)CCc1c[nH]c2ccc(CC(=O)NC(c3ccccc3)c3ccccc3N3CCCCC3)cc12 (stereo not drawn) [Cpd. 1, 3-{5-[({phenyl[2-(piperidin-1-yl)phenyl]methyl}carbamoyl)methyl]-1H-indol-3-yl}propanoic acid] |
| < 1000 nM | 22% | 2.9% | O=C(O)CCc1c[nH]c2ccc(CC(=O)NC(c3cccc(F)c3)c3ccccc3N3CCCCC3)cc12 (stereo not drawn) [Cpd. 3, 3-[5-({[(3-fluorophenyl)[2-(piperidin-1-yl)phenyl]methyl]carbamoyl}methyl)-1H-indol-3-yl]propanoic acid] |
| < 1000 nM | 50% | 4.4% | Cc1ccc(C(NC(=O)Cc2ccc3[nH]cc(CCC(=O)O)c3c2)c2ccccc2)c(N2CCCC2)c1 (stereo not drawn) [Cpd. 5, 3-{5-[({[4-methyl-2-(pyrrolidin-1-yl)phenyl](phenyl)methyl}carbamoyl)methyl]-1H-indol-3-yl}propanoic acid] |
